US8435978B2, “Substituted sulfonamide compounds” (Gruenenthal GmbH, priority 2006, dated 2013)

Tests used:
human B1R receptor = biological target: T1, human B1R receptor (Homo sapiens, UniProt P46663); test: Functional study on the bradykinin receptor 1 (B1R), FLIPR Ca2+ assay, hB1R cells; assay type: cell-based; details: CHO-K1, test substance 10 μM, agonist Lys-Des-Arg9-bradykinin 0.5 nM, % inhibition compared with the maximum achievable inhibition, read-out: B1R Antagonism, human [10 μM] % Inhibition
T1 construct: host or cells: CHO K1 cells (Chinese hamster ovary), stably transfected
T1 sequence (P46663 1-353): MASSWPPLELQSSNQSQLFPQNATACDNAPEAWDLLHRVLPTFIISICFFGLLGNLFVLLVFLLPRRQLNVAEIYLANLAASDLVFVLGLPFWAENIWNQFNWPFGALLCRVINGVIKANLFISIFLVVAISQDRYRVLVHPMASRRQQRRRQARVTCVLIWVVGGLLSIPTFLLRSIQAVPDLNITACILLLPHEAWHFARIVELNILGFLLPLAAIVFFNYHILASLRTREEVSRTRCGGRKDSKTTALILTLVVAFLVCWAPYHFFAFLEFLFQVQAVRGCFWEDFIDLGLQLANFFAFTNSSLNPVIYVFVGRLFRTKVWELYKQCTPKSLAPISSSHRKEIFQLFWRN
Method in brief: (§1)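 Cells were dye-loaded 60 min at 37 °C, equilibrated 20 min at room temperature, then given 10 μM compound. Ten minutes later the species-matched agonist was added (0.5 nM Lys-Des-Arg9-bradykinin, human; 100 nM Des-Arg9-bradykinin, rat) and Ca2+ influx suppression expressed as % of maximum inhibition.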

B1R receptor of the rat = biological target: T2, B1R receptor of the rat (Rattus norvegicus, UniProt P97583); test: Functional study on the bradykinin receptor 1 (B1R), FLIPR Ca2+ assay, rB1R cells; assay type: cell-based; details: CHO-K1, test substance 10 μM, agonist Des-Arg9-bradykinin 100 nM, % inhibition compared with the maximum achievable inhibition, read-out: B1R Antagonism, rat [10 μM] % Inhibition
T2 construct: host or cells: CHO K1 cells (Chinese hamster ovary), stably transfected
T2 sequence (P97583 1-337): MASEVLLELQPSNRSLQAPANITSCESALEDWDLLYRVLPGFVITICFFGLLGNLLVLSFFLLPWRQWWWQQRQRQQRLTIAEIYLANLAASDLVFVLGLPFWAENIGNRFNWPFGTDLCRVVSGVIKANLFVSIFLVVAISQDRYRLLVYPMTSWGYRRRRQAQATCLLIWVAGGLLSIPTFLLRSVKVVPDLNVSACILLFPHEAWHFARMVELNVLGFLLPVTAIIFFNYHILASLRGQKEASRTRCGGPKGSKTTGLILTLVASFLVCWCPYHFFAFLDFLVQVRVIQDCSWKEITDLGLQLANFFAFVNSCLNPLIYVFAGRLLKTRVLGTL
Method in brief: as §1

SMILES	inhibition at 10 µM (human B1R receptor) [%]	inhibition at 10 µM (B1R receptor of the rat) [%]
COc1cc(C)c(S(=O)(=O)N2CCCC2COCC(=O)N2CCN(c3cccc(Cl)c3)CC2)c(C)c1 (stereo not drawn) [Example 346, 1-(4-(3-chlorophenyl)piperazin-1-yl)-2-((1-(4-methoxy-2,6-dimethylphenylsulfonyl)pyrrolidin-2-yl)methoxy)ethanone]	95.5	101
COc1cc(C)c(S(=O)(=O)N2CCCC2COCC(=O)N2CCN(c3ccc(C)c(C)c3)CC2)c(C)c1 (stereo not drawn) [Example 347, 1-(4-(3,4-dimethylphenyl)piperazin-1-yl)-2-((1-(4-methoxy-2,6-dimethylphenylsulfonyl)pyrrolidin-2-yl)methoxy)ethanone]	56.6	103
COc1cc(C)c(S(=O)(=O)N2CCCC2COCC(=O)N2CCN(c3ccc(Cl)c(Cl)c3)CC2)c(C)c1 (stereo not drawn) [Example 348, 1-(4-(3,4-dichlorophenyl)piperazin-1-yl)-2-((1-(4-methoxy-2,6-dimethylphenylsulfonyl)pyrrolidin-2-yl)methoxy)ethanone]	87.1	103
COc1cc(C)c(S(=O)(=O)N2CCCC2COCC(=O)N2CCN(Cc3ccc(Cl)c(Cl)c3)CC2)c(C)c1 (stereo not drawn) [Example 349, 1-(4-(3,4-dichlorobenzyl)piperazin-1-yl)-2-((1-(4-methoxy-2,6-dimethylphenylsulfonyl)pyrrolidin-2-yl)methoxy)ethanone]	101	103
COc1cc(C)c(S(=O)(=O)N2CCCC2COCC(=O)N2CCN(Cc3ccc(Br)cc3)CC2)c(C)c1 (stereo not drawn) [Example 350, 1-(4-(4-bromobenzyl)piperazin-1-yl)-2-((1-(4-methoxy-2,6-dimethylphenylsulfonyl)pyrrolidin-2-yl)methoxy)ethanone]	104	104
COc1cc(C)c(S(=O)(=O)N2CCCC2COCC(=O)N2CCN(Cc3c(C)cc(C)cc3C)CC2)c(C)c1 (stereo not drawn) [Example 351, 2-((1-(4-methoxy-2,6-dimethylphenylsulfonyl)pyrrolidin-2-yl)methoxy)-1-(4-(2,4,6-trimethylbenzyl)piperazin-1-yl)ethanone]	44	104
COc1cc(C)c(S(=O)(=O)N2CCCC2COCC(=O)N2CCN(Cc3ccc(Cl)cc3)CC2)c(C)c1 (stereo not drawn) [Example 352, 1-(4-(4-chlorobenzyl)piperazin-1-yl)-2-((1-(4-methoxy-2,6-dimethylphenylsulfonyl)pyrrolidin-2-yl)methoxy)ethanone]	104	104
COc1cc(C)c(S(=O)(=O)N2CCCC2COCC(=O)N2CCN(Cc3ccc(C)cc3)CC2)c(C)c1 (stereo not drawn) [Example 353, 2-((1-(4-methoxy-2,6-dimethylphenylsulfonyl)pyrrolidin-2-yl)methoxy)-1-(4-(4-methylbenzyl)piperazin-1-yl)ethanone]	103	102
O=C(COCC1CCCN1S(=O)(=O)c1c(Cl)cccc1Cl)N1CCN(c2cccc(Cl)c2)CC1 (stereo not drawn) [Example 354, 1-(4-(3-chlorophenyl)piperazin-1-yl)-2-((1-(2,6-dichlorophenylsulfonyl)pyrrolidin-2-yl)methoxy)ethanone]	62.5	102
Cc1ccc(N2CCN(C(=O)COCC3CCCN3S(=O)(=O)c3c(Cl)cccc3Cl)CC2)cc1C (stereo not drawn) [Example 355, 2-((1-(2,6-dichlorophenylsulfonyl)pyrrolidin-2-yl)methoxy)-1-(4-(3,4-dimethylphenyl)piperazin-1-yl)ethanone]	83.4	102
O=C(COCC1CCCN1S(=O)(=O)c1c(Cl)cccc1Cl)N1CCN(c2ccc(Cl)c(Cl)c2)CC1 (stereo not drawn) [Example 356, 1-(4-(3,4-dichlorophenyl)piperazin-1-yl)-2-((1-(2,6-dichlorophenylsulfonyl)pyrrolidin-2-yl)methoxy)ethanone]	43	103
O=C(COCC1CCCN1S(=O)(=O)c1c(Cl)cccc1Cl)N1CCN(Cc2ccc(Cl)c(Cl)c2)CC1 (stereo not drawn) [Example 357, 1-(4-(3,4-dichlorobenzyl)piperazin-1-yl)-2-((1-(2,6-dichlorophenylsulfonyl)pyrrolidin-2-yl)methoxy)ethanone]	79.4	104
O=C(COCC1CCCN1S(=O)(=O)c1c(Cl)cccc1Cl)N1CCN(Cc2ccc(Br)cc2)CC1 (stereo not drawn) [Example 358, 1-(4-(4-bromobenzyl)piperazin-1-yl)-2-((1-(2,6-dichlorophenylsulfonyl)pyrrolidin-2-yl)methoxy)ethanone]	101	103
O=C(COCC1CCCN1S(=O)(=O)c1c(Cl)cccc1Cl)N1CCN(Cc2ccc(Cl)cc2)CC1 (stereo not drawn) [Example 359, 1-(4-(4-chlorobenzyl)piperazin-1-yl)-2-((1-(2,6-dichlorophenylsulfonyl)pyrrolidin-2-yl)methoxy)ethanone]	98.6	103
Cc1ccc(CN2CCN(C(=O)COCC3CCCN3S(=O)(=O)c3c(Cl)cccc3Cl)CC2)cc1 (stereo not drawn) [Example 360, 2-((1-(2,6-dichlorophenylsulfonyl)pyrrolidin-2-yl)methoxy)-1-(4-(4-methylbenzyl)piperazin-1-yl)ethanone]	96.7	103
COc1cc(C)c(S(=O)(=O)N2CCCCC2COCC(=O)N(CCN(C)C)Cc2ccccc2)c(C)c1 (stereo not drawn) [Example 361, N-benzyl-N-(2-(dimethylamino)ethyl)-2-((1-(4-methoxy-2,6-dimethylphenylsulfonyl)piperidin-2-yl)methoxy)acetamide]	93.4	101
COc1cc(C)c(S(=O)(=O)N2CCCCC2COCC(=O)N2CCCN(Cc3ccccc3)CC2)c(C)c1 (stereo not drawn) [Example 362, 1-(4-benzyl-1,4-diazepan-1-yl)-2-((1-(4-methoxy-2,6-dimethylphenylsulfonyl)piperidin-2-yl)methoxy)ethanone]	103	102
COc1cc(C)c(S(=O)(=O)N2CCCCC2COCC(=O)N2CC[C@@H](N(C)C)C2)c(C)c1 (stereo partly drawn) [Example 363, 1-((R)-3-(dimethylamino)pyrrolidin-1-yl)-2-((1-(4-methoxy-2,6-dimethylphenylsulfonyl)piperidin-2-yl)methoxy)ethanone]	90.7	101
COc1cc(C)c(S(=O)(=O)N2CCCCC2COCC(=O)N(C)[C@H]2CCN(Cc3ccccc3)C2)c(C)c1 (stereo partly drawn) [Example 364, N—((S)-1-benzylpyrrolidin-3-yl)-2-((1-(4-methoxy-2,6-dimethylphenylsulfonyl)piperidin-2-yl)methoxy)-N-methylacetamide]	105	101
COc1cc(C)c(S(=O)(=O)N2CCCCC2COCC(=O)NC2CCN(Cc3ccccc3)C2)c(C)c1 (stereo not drawn) [Example 365, N-(1-benzylpyrrolidin-3-yl)-2-((1-(4-methoxy-2,6-dimethylphenylsulfonyl)piperidin-2-yl)methoxy)acetamide]	55.6	99.8
COc1cc(C)c(S(=O)(=O)N2CCCCC2COCC(=O)NCCCn2ccnc2)c(C)c1 (stereo not drawn) [Example 366, N-(3-(1H-imidazol-1-yl)propyl)-2-((1-(4-methoxy-2,6-dimethylphenylsulfonyl)piperidin-2-yl)methoxy)acetamide]	14.8	99
COc1cc(C)c(S(=O)(=O)N2CCCCC2COCC(=O)N(Cc2ccc(N(C)C)cc2)C(C)C)c(C)c1 (stereo not drawn) [Example 367, N-(4-(dimethylamino)benzyl)-N-isopropyl-2-((1-(4-methoxy-2,6-dimethylphenylsulfonyl)piperidin-2-yl)methoxy)acetamide]	20.1	103
COc1cc(C)c(S(=O)(=O)N2CCCCC2COCC(=O)N(C)C(CN2CCOCC2)c2ccccc2)c(C)c1 (stereo not drawn) [Example 368, 2-((1-(4-methoxy-2,6-dimethylphenylsulfonyl)piperidin-2-yl)methoxy)-N-methyl-N-(2-morpholino-1-phenylethyl)acetamide]	62.1	101
COc1cc(C)c(S(=O)(=O)N2CCCCC2COCC(=O)N2CCN(c3ccccn3)CC2)c(C)c1 (stereo not drawn) [Example 369, 2-((1-(4-methoxy-2,6-dimethylphenylsulfonyl)piperidin-2-yl)methoxy)-1-(4-(pyridin-2-yl)piperazin-1-yl)ethanone]	82.3	101
